Measured values as given in patent publication US20230322670A1, “DIPYRROLIDINE-1-ONE COMPOUNDS AND THEIR PREPARATION METHOD” (Poseidon Pharmaceutical Co., Ltd., priority 2020, published 2023).

Key:
[1] = Antitumor activity test, sulfonyl rhodamine B (SRB) method; format: cell-based, human; details: compound concentration 10^−5 M, A-549 cells cultured 72 hours, OD560
Procedure: (§1) Antitumor activity test: Sulfonyl rhodamine B (SRB) method was used to determine the in vitro anti-tumor activity of A-549 […] cancer cells. A-549 human […] cancer cells in logarithmic growth were inoculated into a 96 well microculture plate with the amount of 90 μL/well. 24 hours later, the solutions respectively containing the compounds 1a, 1b, 1c, 1d, 1e, 1f, 1g, 1h, and 1i of the disclosure were added to the wells with each 10 μL/well, and three wells for each concentration. A cell-free zero adjustment hole was also provided. The concentrations of the compounds 1a, 1b, 1c, 1d, 1e, 1f, 1g, 1h, and 1i in corresponding solution were all 10^−5 M. The tumor cells were cultured at 37° C. under 5% CO2 for 72 hours. The culture medium was discarded, and 100 μL/well of 10% TCA was added to the cells for fixing at 4° C. for 1 hour. The cells were washed three times with distilled water, and dried naturally. 4 mg/mL SRB (Sigma) staining solution of 100 μL/well was added for staining at room temperature for 15 minutes, washed three times with 1% acetic acid aqueous solution, and dried naturally. 100 μL/well of 10 mM Tris base aqueous solution was further added. Then, the optical density (OD560) value was measured using an enzyme-linked immunosorbent assay at a wavelength of 560 nm. The inhibition rate of the tested compounds on tumor cell growth was calculated according to the formula: (control group OD value-administration group OD value)/control group OD value×100%.

[2] = system: A-549 human breast cancer cells; experiment: as above; format: cell-based; details: Homo sapiens, A549, compound concentration 10^−5 M, A-549 cells cultured 72 hours, OD560, read-out: Inhibitory rates on tumor cell growth (%)
Procedure: as §1

3,7,9-trimethyl-8-(2-carboxyethyl) -2-(2-p-toluenesulfoethyl)-Dipyrrolidene-1-one [Compound 1f]
Inhibitory rates on tumor cell growth (%) [1]: 23.5%

3,7,9-trimethyl-8-(2-methoxycarbonyl ethyl)-2-(2-p-tolylene sulfonyl group ethyl)-dipyrrolidone [Compound 1h]
Inhibitory rates on tumor cell growth (%) [1]: 11.7%

3,7-dimethyl-8-(2-ethoxycarbonylethyl) -2-(2-p-toluenesulfoethyl)-dipyrrolidene-1-one [Compound 1g]
Inhibitory rates on tumor cell growth (%) [1]: 35.6%

9-tert butoxycarbonyl-2,7-dimethyl-8-(2-methoxycarbonylethyl)-3-(2-p-toluenesulfoethyl)-dipyrrolidene-1-one [Compound 1a]
Inhibitory rates on tumor cell growth (%) [1]: 72.3%

9-tert-butyloxycarbonyl-3,7-dimethyl-8-(2-methoxycarbonyl ethyl)-2-(2-p-tolylene sulfonyl group ethyl)-dipyrrolomethen-1-one [Compound 1b]
Inhibitory rates on tumor cell growth (%) [1]: 57.0%

COC(=O)CCc1c(C(=O)OC(C)(C)C)[nH]c(C=C2NC(=O)C(CCS(=O)(=O)c3ccc(C)cc3)=C2C)c1C [Compound 1c, 9-tert-butyloxycarbonyl-3,7-dimethyl-8-(2-methoxycarbonylethyl)-2-(2-nenenebap-toluenesulfonylethyl)-dipyrrolomethen-1-one]
Inhibitory rates on tumor cell growth (%) [1]: 34.4%

COC(=O)CCc1c(C)[nH]c(/C=C2\NC(=O)C(CCSc3ccc(C)cc3)=C2C)c1C [Compound 1d, 3,7,9-trimethyl-8-(2-methoxycarbonylethyl) -2-(2-p-toluenesulfoethyl)-dipyrrolidene-1-one]
inhibition at 10 µM [2]: 37.8%

COC(=O)CCc1c(C)[nH]c(/C=C2\NC(=O)C(CC[S+]([O-])c3ccc(C)cc3)=C2C)c1C (stereo not drawn) [Compound 1e, 3,7,9-trimethyl-8-(2-methoxycarbonylethyl)-2-(2-p-tolylenesulfonylgroupethyl)-dipyrrolidone]
inhibition at 10 µM [2]: 63.4%

COC(=O)CCc1c(C)[nH]c(C=C2NC(=O)C(CCS(=O)(=O)c3ccc(C)cc3)=C2C)c1C [Compound 1i, 3,7,9-trimethyl-8-(2-methoxycarbonylethyl)-2-(2-nenenebap-toluenesulfonylethyl)-dipyrrolomethen-1-one]
Inhibitory rates on tumor cell growth (%) [1]: 28.4%
